{
  "source": "patent US20240226165A1",
  "about": "“Methods of Producing Improved Immune Cell Populations” (Prescient Therapeutics Ltd, priority 2021, published 2024)",
  "key": {"human CAR-T-cells [1]": {"test_system": "human CAR-T-cells", "test": "Flow cytometry phenotyping of human CAR-T-cells from PBMC donors", "assay_type": "cell-based", "experimental": "Human PBMCs were extracted from buffy packs (Australian Red Cross Blood Service). They were activated using anti-CD3 antibody (OKT3) for 2 days before transduction for 48 hours, all in the presence of IL-2.\nBuffy coats from three donors were processed to isolate PBMCs, where 50 million PBMCs were cultured for 2 days in the presence of media containing anti-CD3 antibodies (OKT3, 1.5 μg per mL) and recombinant IL-2 (600 U/mL). […] Samples were collected either 24 or 72 hours later."}, "murine CAR-T-cells": {"test_system": "murine CAR-T-cells", "test": "Flow cytometry phenotyping of murine CAR-T-cells after manufacturing", "assay_type": "cell-based, mouse", "excerpt": "(§1) Mouse splenocytes were activated using CD3/CD28 antibodies and cultured in the presence of recombinant IL-2 and IL-7 for 24 hrs prior to transduction with CAR-T vectors.\n(§2) Cells were stained using fluorochrome labelled antibodies against CD4, CD8, CD44, CD62L to phenotype the murine CAR-T-cells following manufacturing. Human CAR-T-cells were phenotyped using fluorochrome-conjugated antibodies against CD4, CD8, CD45RA, CD45RO, CD44, CD62L, CCR7, CD27, PD-1 and CD69. A fixable live/dead dye was used to distinguish between live or dead cells.\nSplenocytes from C57BL/6 donor mice were activated with 1 μg mL^−1 anti-CD3, 1 μg mL-1 anti-CD28 in the presence of IL-2 and 200 pg mL-1 IL-7 for 1 day then ficoll gradient treatment. Cells were transduced in plates coated with 1 μg mL of retronectin using supernatant produced from a GP+86 LXSN-anti-Her2 CAR packaging cell line. The transduced cells were then expanded in complete RPMI with the same concentration of IL-2 and IL-7 with or without 5 μM of PTX-200. Fresh IL-2 and IL-7 in complete media were added to all CAR-T-cells 2 days post-transduction."}, "MC-38-hHer2": {"test_system": "MC-38-hHer2", "test": "MC-38-hHer2 colon cancer model in hHer2 transgenic mice", "assay_type": "in vivo, mouse", "quoted_text": "C57BL/6J wildtype (WT) and human Her2 (hHer2) transgenic mouse lines were all in bred and maintained at the Peter MacCallum Cancer Centre (Victoria, Australia). Mice between the age of 6 and 16 weeks were gender-matched and randomised into different treatment groups.\nHer2 transgenic recipients were either injected subcutaneously with 2.5×10^5 of MC38-hHer2 or 2.5×10^5 of E0771-hHer2 into the mammary fat pad with. Once the tumours become palpable and they were measured using a manual caliper and tumour area calculated in millimetres squared (mm^2, length×width). On day 6-7 post-tumour inoculation, tumour-bearing Her2+ mice were ranodmised to have an average tumour size of 20 mm^2, 20×10^6 of CAR-transduced T-cells were adoptively transferred into these recipients. 50 000 U of IL-2 was administered via intraperitoneal injection 5 times over the next 2 days. Tumour sizes were measured and monitored every 2-3 days until their tumour size exceed 120 mm^2 or until the tumour-bearing mice reached a designated experimental time point."}, "murine T-cells": {"test_system": "murine T-cells", "conditions": "extremely low concentrations", "excerpt": "as §1, §2"}, "human CAR-T-cells [2]": {"test_system": "human CAR-T-cells", "test": "Mass spectrometry of cellular proteome", "assay_type": "cell-based", "conditions": "treatment of PBMCs", "text": "At each time point, cells were collected and washed three times with cold DPBS before cell lysis for global proteomic analysis.\nCells were homogenised/solubilised containing protease and phosphatase inhibitor (HALT) by tip-probe sonication, quantified, normalized and reduced (dithiothreitol, DTT), alkylated (iodoacetamide), before Sera-Mag Speed Bead-based protein digestion with LysC (enzyme:substrate 1:100, Wako Pure Chemical Industries) trypsin (enzyme:substrate 1:50). […] Peptides desalted (SDB-RPS Stage-Tips), and analysed for global cellular proteome.\nSpectra acquired in data dependent acquisition on an Orbitrap Q-Exactive HF-X mass spectrometer coupled to an Easy-nLC 1200 (Thermo Fisher Scientific) ultra-high pressure liquid chromatography (UHPLC) pump. […] The most intense MS1 ions were selected for MS2 analysis, fragmented by higher-energy collisional dissociation with normalized collision energy of 33. Precursors were filtered according to charge state≥2, AGC set at 1e5 for MS/MS, with monoisotopic peak used.\nMass spectra were pre-processed and processed using MaxQuant (1.6.14). […]\nFor further data analysis, the normalized intensities were converted into log 2 ratios of the intensities over the median intensity measured for each protein across each sample group, with statistical analyses performed using Student's T-test or ANOVA (p-value<0.05 was considered significant). […]"}, "[3]": {"test": "Immune subsets in spleen and tumour, MC-38-hHer2 model", "assay_type": "in vivo, mouse", "conditions": "TCN-P as adjuvant in the presence of CAR-T-cells", "excerpt": "Blood of mice was collected directly into EDTA-containing tube via submandibular bleeding at day 8-9 post-treatment. At the experimental endpoint, various organs including tumour, draining lymph node (dLN) and spleen were collected immediately after euthanasia. Single cell suspension from the dLN and spleen were achieved by processing these organs through a 70 μm filter. For splenocytes, red blood cells were lysed with ACK lysis buffer. Solid tumours were manually sliced and digested with DMEM containing 1 mg mL^−1 type IV collagenase and 0.02 mg mL^−1 DNAse for 30 mins at 37° C. in a rocking incubation at 120 r.p.m. Digestion was neutralised with DMEM and processed through a 70 μm filter and resuspended in either FACS buffer or complete RPMI media. […]\nCells were blocked for 15 mins at room temperature with Fc receptor block (clone 2.4G2 of the hybridoma supernatant diluted 1:50 with FACS buffer). […] The number of target T-cell population was calculated by using: the number of input beads in the sample/bead events×events of targeted population."}},
  "note": "“Also recorded” adds a separate entry of the source.",
  "data": [
    {"smiles": "CN1N=C(N)c2cn([C@@H]3O[C@H](COP(=O)(O)O)[C@@H](O)[C@H]3O)c3ncnc1c23", "note": "[TCN-P, triciribine 5′-monophosphate]", "values": [
      {"measurement": "effector T (TE) cells in CD8+ CAR-T-cells", "setting": "human CAR-T-cells [1]; 24 hrs, n=3 donors, control/vehicle 8%", "value": 5, "unit": "%"},
      {"measurement": "Central memory T (TCM) cells (CD45RO+ CD62L+) in CD8+ CAR-T-cells, mean", "setting": "human CAR-T-cells [1]; 24 hrs, n=3 donors, control/vehicle 11%", "value": 17, "unit": "%"},
      {"measurement": "Central memory T (TCM) cells (CD45RO+ CD62L+) in CD8+ CAR-T-cells", "setting": "human CAR-T-cells [1]; 3 days, after 24 hour treatment, n=3, control/vehicle 9%", "value": 16, "unit": "%"},
      {"measurement": "effector T (TE) cells in CD8+ CAR-T-cells", "setting": "human CAR-T-cells [1]; 3 days, after 24 hour treatment, n=3, control/vehicle 35%", "value": 23, "unit": "%"},
      {"measurement": "CCR7+ TCM, mean", "setting": "human CAR-T-cells [1]; CD8+ CAR-T, pre-treatment, from 9%", "value": 16, "unit": "%"},
      {"measurement": "CCR7+ TE", "setting": "human CAR-T-cells [1]; CD8+ CAR-T, pre-treatment, from 35%", "value": 23, "unit": "%"},
      {"measurement": "TCM or TE phenotype of CD4+ CAR-T-cells", "setting": "human CAR-T-cells [1]; pre-treatment, 24 hrs and 3 days", "value": "did not have any effect"},
      {"measurement": "TREG proportions (CD4+CD25+FoxP3+) in CD4+ transduced CAR-T-cells", "setting": "human CAR-T-cells [1]; pre-treatment, low concentrations", "value": "reduced"},
      {"measurement": "ratio of CD4:CD8 T-cells", "setting": "murine CAR-T-cells; TCN-P conditioning during CAR-T manufacturing, prior to administration", "value": "unchanged"},
      {"measurement": "central memory CD8+ CAR-T-cells (CD44+ CD62L+)", "setting": "murine CAR-T-cells; TCN-P preconditioning during CAR-T manufacturing", "value": "significant enrichment"},
      {"measurement": "tumour control / tumour killing, tumour sizes until day 14", "setting": "MC-38-hHer2; 25 mg/kg TCN-P adjuvant every 3 days following Her2-targeting CAR-T administration", "value": "significantly improved"},
      {"measurement": "median survival duration", "setting": "MC-38-hHer2; TCN-P 25 mg/Kg, 20×10^6 CAR-T-cells, control group 15 days", "value": 20, "unit": "days"},
      {"measurement": "anti-tumour effect (tumour growth)", "setting": "MC-38-hHer2; TCN-P alone, 5, 25 or 50 mg/Kg i.p. every 3-4 days", "value": "dosage dependent anti-tumour effect; also recorded: strong anti-tumour effect"},
      {"measurement": "tolerability by transduced T-cells", "setting": "murine T-cells", "value": "well-tolerated"},
      {"measurement": "enrichment of proteins associated with interferon signalling and anti-viral activity", "setting": "human CAR-T-cells [2]", "value": "increased enrichment"},
      {"measurement": "proteins associated with metabolism and RNA processing", "setting": "human CAR-T-cells [2]", "value": "enriched"},
      {"measurement": "reduction of intratumoral Tregs", "setting": "[3]", "value": 50, "unit": "%"}
    ]}
  ]
}
